Results: paper PMC7363796, “Blood pressure-lowering effects of a Bowman-Birk inhibitor and its derived peptides in normotensive and hypertensive rats” (Scientific Reports, 2020)
Where two headings read alike, the source gives them in different places. Where a SMILES comes first, the peptide text is derived from it. Bridges are numbered along the chain shown (N, C = ends).

T1: angiotensin converting enzyme (ACE) (Oryctolagus cuniculus, UniProt P12822)
T1 construct: ACE stock solution was obtained from rabbit lung; from tissue; host or cells: rabbit lung
T1 sequence (P12822 34-1310): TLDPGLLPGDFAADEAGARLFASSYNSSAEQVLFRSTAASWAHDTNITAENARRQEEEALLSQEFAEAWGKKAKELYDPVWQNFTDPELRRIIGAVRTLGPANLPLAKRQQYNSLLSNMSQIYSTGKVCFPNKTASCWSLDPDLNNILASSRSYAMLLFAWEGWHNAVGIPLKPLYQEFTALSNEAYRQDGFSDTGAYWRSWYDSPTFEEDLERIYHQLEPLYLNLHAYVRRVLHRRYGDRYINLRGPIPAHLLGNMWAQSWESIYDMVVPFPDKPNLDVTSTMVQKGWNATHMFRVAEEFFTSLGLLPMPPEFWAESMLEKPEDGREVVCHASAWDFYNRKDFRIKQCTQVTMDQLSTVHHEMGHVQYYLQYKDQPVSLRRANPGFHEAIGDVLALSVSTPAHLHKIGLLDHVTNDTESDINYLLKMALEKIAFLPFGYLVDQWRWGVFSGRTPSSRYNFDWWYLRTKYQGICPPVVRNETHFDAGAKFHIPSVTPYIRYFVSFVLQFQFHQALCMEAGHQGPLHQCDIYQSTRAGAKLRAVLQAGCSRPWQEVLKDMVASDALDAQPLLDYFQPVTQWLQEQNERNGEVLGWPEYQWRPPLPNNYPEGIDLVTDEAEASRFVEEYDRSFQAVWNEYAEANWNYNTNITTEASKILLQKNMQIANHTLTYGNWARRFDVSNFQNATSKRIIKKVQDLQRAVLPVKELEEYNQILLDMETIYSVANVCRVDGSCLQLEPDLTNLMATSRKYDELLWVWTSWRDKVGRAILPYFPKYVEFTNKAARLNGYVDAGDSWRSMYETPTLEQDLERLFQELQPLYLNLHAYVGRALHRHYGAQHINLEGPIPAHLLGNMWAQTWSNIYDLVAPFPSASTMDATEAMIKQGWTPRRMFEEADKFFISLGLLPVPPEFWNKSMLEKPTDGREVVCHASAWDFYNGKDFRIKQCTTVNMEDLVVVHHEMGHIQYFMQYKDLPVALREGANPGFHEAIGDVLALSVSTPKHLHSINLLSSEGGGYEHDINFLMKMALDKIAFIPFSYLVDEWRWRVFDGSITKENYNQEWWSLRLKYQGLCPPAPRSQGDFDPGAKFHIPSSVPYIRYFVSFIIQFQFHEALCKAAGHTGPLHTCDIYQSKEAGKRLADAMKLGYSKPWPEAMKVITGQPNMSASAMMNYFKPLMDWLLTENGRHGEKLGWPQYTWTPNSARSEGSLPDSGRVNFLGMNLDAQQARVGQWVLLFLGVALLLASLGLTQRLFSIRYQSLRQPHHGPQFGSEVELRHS

T2: trypsin (Bos taurus, UniProt P00760)
T2 sequence (P00760 24-246): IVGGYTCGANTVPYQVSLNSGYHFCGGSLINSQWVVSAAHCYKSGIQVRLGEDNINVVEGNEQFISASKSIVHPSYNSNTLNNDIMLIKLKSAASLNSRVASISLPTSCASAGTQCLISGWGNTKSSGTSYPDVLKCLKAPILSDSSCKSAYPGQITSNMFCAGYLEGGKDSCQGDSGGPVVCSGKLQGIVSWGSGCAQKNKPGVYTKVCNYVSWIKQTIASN


Tests used:
chymotrypsin [1] = target: T3, chymotrypsin (Bos taurus, UniProt P00766); assay: Inhibition of chymotrypsin, residual activity with GPNA substrate; format: biochemical; conditions: pH 7.6, from fitted inhibition curves (GRAFIT), read-out: Inhibition constant Ki against chymotrypsin
Procedure: (§1) The inhibitory activities of BTCI, PepTry and PepChy against trypsin and chymotrypsin activities were assayed using the substrates Na-benzoyl-DL-arginine-p-nitroanilide (BAPNA) and n-glutaryl-L-phenylalanine-p-nitroanilide (GPNA), respectively (Sigma)[19],[39]. Enzymatic assays were performed in 50 mM Tris-HCl, CaCl2 20 mM pH 7.6 for chymotrypsin or pH 8.2 for trypsin. Forty μL of BTCI and PepTry (0 to 20 μM) and BTCI and PepChy (0 to 50 μM) were incubated with 40 μL of trypsin (2.57 µM) or chymotrypsin (28.60 µM), respectively, in a 96-well plate at room temperature for 15 minutes. Then, 200 μL BAPNA (0.064 mg/mL) or GPNA (0.8 mg/mL) were added. The reaction was stopped by addition of 30 μL 30% acetic acid (v/v). Enzymatic hydrolysis of the substrate was evaluated by recording the absorbance at 410 nm. The residual activities of the enzymes, in the presence of inhibitors, were estimated considering the free enzyme activity to be 100%. Inhibition constants of the enzyme-inhibitor complexes, Ki, were calculated from fitted inhibition curves[70] using the GRAFIT program version 3 (Erithacus Software, Horley, Surrey, United Kingdom).

[2] = target: T1, angiotensin converting enzyme (ACE); assay: ACE inhibition assay with HHL substrate (Hayakari method); format: biochemical; conditions: rabbit lung ACE; for inhibition at 100 µM: pH 8.3, read-out: Highest ACE-inhibitory value; for IC50: sodium phosphate pH 8.3, 37 °C, 10 min pre-incubation, 45 min reaction, absorbance 382 nm, non-linear fit, triplicate, read-out: IC50 against ACE
Procedure: Inhibitory activities of peptides PepTry and PepChy and BTCI against ACE were performed according to Hayakari, et al. (1978) using the synthetic substrate hippuryl-L-histidyl-L-leucine (HHL)[71]. Briefly, ACE stock solution was obtained from rabbit lung in 10 mM sodium phosphate buffer, pH 8.3, and BTCI and peptides stock solutions were prepared in MilliQ water (m/v). Concentration of BTCI was estimated from spectrophotometric absorbance at 280 nm based A2801% = 8.23. Concentration of PepTry and PepChy were estimated according to Eq. 1. BTCI and peptides were diluted in 10 mM sodium phosphate buffer pH 8.3 to obtain concentrations ranging from 0 to 600 µM. Ten µL peptide solutions were pre-incubated with 10 µL of ACE containing 0.5 M NaCl at 37 °C for 10 min. […] The enzymatic reaction was terminated by adding a mixture containing 550 µL of 100 mM sodium phosphate pH 8.3 and 332.5 µL of 3% (m/v) 2,4,6-trichloro-s-triazine (TT) (in dioxane). The mixture was incubated for 5 min. at room temperature and then centrifuged at 1000 g for 10 min at 4 °C. The absorbance values of supernatants containing hippuric acid liberated from HHL were recorded at 382 nm using the Jasco Spectrophotometer V-530 (Jasco Analytical Instruments, Tokyo, Japan). IC50 values for peptides and BTCI were calculated from nonlinear regression curve of ACE residual activity (%) versus inhibitor concentration (µM) (BTCI, PepTry and PepChy) using Origin software (OriginLab Corporation, USA). The control was prepared containing only the substrate without enzyme solution. Assays were performed in triplicate.

trypsin [3] = target: T2, trypsin; assay: Inhibition of trypsin, residual activity with BAPNA substrate; format: biochemical; conditions: pH 8.2, from fitted inhibition curves (GRAFIT), read-out: Inhibition constant Ki against trypsin
Procedure: as §1

chymotrypsin [4] = target: T3, chymotrypsin; conditions: literature value; read-out: Inhibition constant Ki against chymotrypsin; cited from earlier work
Procedure: (§2) The inhibitory activities of BTCI and its derived peptides, PepTry and PepChy, were evaluated through the residual enzymatic activity of serine proteases trypsin and chymotrypsin in the presence of increasing concentrations of BTCI and its derived peptides (Fig. 2A–D). In the absence of BTCI and peptides, the proteases cleave BAPNA/GPNA substrates releasing the yellow-colored p-nitroanilide product corresponding to an enzymatic activity of 100%[39]. In the presence of BTCI and peptides, a gradual decay of the protease activities is observed. BTCI at approximately 6 µM and 40 µM inhibits trypsi ...

trypsin [5] = target: T2, trypsin; conditions: literature value; read-out: Inhibition constant Ki against trypsin; cited from earlier work
Procedure: as §2

Ki (chymotrypsin [1]) [µM]	inhibition at 100 µM [2] [%]	IC50 [2] [µM]	Ki (trypsin [3]) [µM]	Molecule	Ki (chymotrypsin [4]) [µM]	Ki (trypsin [5]) [µM]
121	~98	24.7 ± 1.1	–	CC[C@H](C)[C@@H]1NC(=O)[C@H](CO)NC(=O)[C@H](Cc2ccccc2)NC(=O)[C@H]([C@@H](C)O)NC(=O)[C@@H](N)CSSC[C@@H](C(=O)O)NC(=O)[C@H](CCC(N)=O)NC(=O)[C@H](C)NC(=O)[C@@H]2CCCN2C1=O [PepChy] (H-CTFSIPAQC-OH; disulfide 1-9)	–	–
–	~98	24.4 ± 1.1	0.119	CC[C@H](C)[C@@H]1NC(=O)[C@H](CO)NC(=O)[C@H](CCCCN)NC(=O)[C@H]([C@@H](C)O)NC(=O)[C@@H](N)CSSC[C@@H](C(=O)O)NC(=O)[C@H](CCC(N)=O)NC(=O)[C@@H]2CCCN2C(=O)[C@@H]2CCCN2C1=O [PepTry] (H-CTKSIPPQC-OH; disulfide 1-9)	–	–
–	–	–	–	BTCI: Bowman-Birk protease inhibitor purified from Vigna unguiculata (Cowpea) seeds; small protein, 9071 Da, seven disulfide bonds	0.115	–
–	–	54.6 ± 2.9	–	BTCI: Bowman-Birk protease inhibitor purified from Vigna unguiculata (Cowpea) seeds; small protein, 9071 Da, seven disulfide bonds (protein, seven intramolecular disulfide bonds; native protein purified from seeds (9071.6 Da)) SGHHEDSTDEASESSKPCCDRCECTKSIPPQCRCSDVRLNSCHSACKSCACTFSIPAQCFCGDINDFCYKPCKSSHSDDDDWN	–	0.0059
